Four compounds from ChEMBL document CHEMBL1126932, “Mechanism-based inhibitors of prostaglandin omega-hydroxylase: (R)- and (S)-12-hydroxy-16-heptadecynoic acid and 2,2-dimethyl-12-hydroxy-16-heptadecynoic acid” (J Med Chem, 1993) can be followed below.

This test concerns the target T1, Cytochrome P450 4A4 (Oryctolagus cuniculus, UniProt P10611).
T1 sequence (P10611 whole entry): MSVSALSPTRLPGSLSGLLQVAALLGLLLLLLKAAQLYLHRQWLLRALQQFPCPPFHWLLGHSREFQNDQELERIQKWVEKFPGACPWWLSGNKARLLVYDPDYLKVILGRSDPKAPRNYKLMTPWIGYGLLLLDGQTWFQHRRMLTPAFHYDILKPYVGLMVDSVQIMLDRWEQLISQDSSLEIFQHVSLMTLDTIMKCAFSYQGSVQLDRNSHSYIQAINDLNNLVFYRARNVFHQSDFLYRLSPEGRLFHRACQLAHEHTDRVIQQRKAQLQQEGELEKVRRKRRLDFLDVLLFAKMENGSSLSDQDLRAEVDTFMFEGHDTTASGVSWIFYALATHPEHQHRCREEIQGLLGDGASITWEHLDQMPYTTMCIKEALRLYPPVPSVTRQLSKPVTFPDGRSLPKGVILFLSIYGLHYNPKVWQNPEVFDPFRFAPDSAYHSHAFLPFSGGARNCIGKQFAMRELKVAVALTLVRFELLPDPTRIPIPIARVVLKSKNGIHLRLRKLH
Put plainly: Inactivation of prostaglandin E1 omega-hydroxylase (Cytochrome P450 4A4) in rabbit lung. The class given is tissue-based.

`C#CCCC[C@@H](O)CCCCCCCCCCC(=O)O` returned a Ki of 1.8 µM. For `C#CCCCC(O)CCCCCCCCCC(C)(C)C(=O)O` (centres undefined), the Ki came out at 4.9 µM. `C#CCCC[C@H](O)CCCCCCCCCCC(=O)O`: the Ki was 3.6 µM. In the case of `C#CCCCC(O)CCCCCCCCCCC(=O)O` (racemic), the Ki was found to be 4.8 µM.
